The nature of data set [1]: Metabolic stability, dog liver S9. In kind it is in vitro ADME. Particulars: pooled liver S9 fraction, Table S4, read-out: t1/2 dog liver S9. Here is the method: (§1) For the evaluation of combined phase I and phase II metabolic stability, the compound (1 μM) was incubated with 1 mg/mL pooled liver S9 fraction from the respective species (Xenotech), […]
(§2) 2 mM NADPH, 1 mM UDPGA, 10 mM MgCl2, 5 mM GSH and 0.1 mM PAPS at 37 °C for […]
(§3) 0, 5, 15, 30 or 60 min. The metabolic stability of Testosterone (1 μM) and verapamil (1 μM) […]
(§4) were determined in parallel to confirm the enzymatic activity of the S9 fraction. The […]
(§5) incubation was stopped by precipitation of S9 enzymes with 2 volumes of cold acetonitrile […]
(§6) containing internal standard (750 nM Diphenhydramine). Samples were stored on ice for 10 […]
(§7) min and precipitated protein was removed by centrifugation (10 min, 4 °C, 17,000 g).
(§8) Concentration of the remaining test compound at the different time points was analyzed by […]
(§9) LC-MS/MS (TSQ Quantum Access MAX, Thermo Fisher, Dreieich, Germany) and used to […]
(§10) determine half-life (t1/2). Stability of compound 4 in further S9 fractions are summarized in […]
(§11) Table S4. Metabolic stability studies in various S9 fractions. […]

The nature of data set [2]: Metabolic stability, rat liver S9. As to conditions: pooled liver S9 fraction, Table S4, n=1, read-out: t1/2 rat liver S9. In kind it is in vitro ADME. Here is the method:
as §1, §2, §3, §4, §5, §6, §7, §8, §9, §10, §11

Data set [3] is described as follows: Metabolic stability, rabbit liver S9. In kind it is in vitro ADME. Particulars: pooled liver S9 fraction, Table S4, read-out: t1/2 rabbit liver S9. Here is the method: (§12) subtraction and plotted using GraphPad Prism 8.4.2 (GraphPad Software, San Diego, CA, […]
(§13) USA). Solubility (S) was determined based on the First X value of AUC function using a […]
as §1, §2, §3, §4, §5, §6, §7, §8, §9, §10, §11
(§14) guinea pig liver S9 92.5 ± 5.4
(§15) 5.6. Permeability studies
(§16) Permeability of compound 4 and 17 was assessed in vitro with Calu-3 HTB-55 cell line (ATCC). […]

Data set [4] can be described thus: Mouse MTD, acute single dose toxicity i.v. Format: in vivo. Particulars: mice. How it is done: Pyruvate. Passages between 35 and 55 were used, medium was changed every 2-3 days. For experiments, cells were harvested using Trypsin/EDTA and seeded on Transwell® inserts 3460 at a density of 1∙105 cells. Cells were grown at air-liquid interface beginning day 3 and used for Transport studies on day 11-13. TEER values exceeded 300 Ω∙cm2 before beginning Transport studies. For experiments, Krebs-Ringer solution with 1% BSA was used and cells were accommodated to the buffer for at least 1h with no decrease in TEER. 200 µL samples were taken in regular intervals from the apical side (time intervals 0, 20, 40, 60, 90, 120, 180, 240 minutes) and replenished with fresh buffer. TEER was monitored during the experiment and epithelial barriers were considered compromised if the TEER fell below 300 during 4 h of experiment duration. […] 50 µL of sample was mixed with 150 µL of ice-cold acetonitrile containing internal standard diphenhydramine (1 µM) and the concentration of compound was analyzed with LC-MS/MS. […]
The in vivo tolerability study was performed on ten-week old female C57BL/6N mice. […] Mice behavior and body weight were monitored over 24 h period. At 24 h post-injection, the mice were euthanized, lungs were collected, and the blood leukocytes as well as the absolute leukocytes (including segented, lymphocytes, monocytes and eosinophiles) were counted to access the tolerability. […]

Data set [5] can be described thus: Metabolic stability, guinea pig liver S9. In kind it is in vitro ADME. Particulars: pooled liver S9 fraction, Table S4, read-out: t1/2 guinea pig liver S9. How it is done: as §12, §13, §1, §2, §3, §4, §5, §6, §7, §8, §9, §10, §11, §14, §15, §16
Data set [6] in a line: Metabolic stability, monkey liver S9. Format: in vitro ADME. Particulars: pooled liver S9 fraction, Table S4, read-out: t1/2 monkey liver S9. How it is done:
as §1, §2, §3, §4, §5, §6, §7, §8, §9, §10, §11

SMILES strings stand for the structures.

As to `FC(F)(F)c1cc(NCc2cn(-c3ccc(Oc4ccccc4)cc3)nn2)ccn1` [Compound 4], the half-life at 1 μM in data set [1] was determined as 72.2 ± 7.6 min; in data set [2], 24.2 min; in data set [3] it was 20 ± 10 min; in data set [5] it was 92.5 ± 5.4 min; in data set [6], 22.8 ± 6.7 min. Further, the “test dosing up to which no test item related clinical symptoms were observed” value in data set [4] (i.v. single dose, after 24 h) is listed as no less than 60 mg/kg. The MTD at 24 h in data set [4] (mouse, in vivo, iv, i.v., read-out: dose up to which well tolerated (maximum tolerated dose study)) is no less than 60 mg/kg.

For the origin of these results see article PMC8224453, “A New PqsR Inverse Agonist Potentiates Tobramycin Efficacy to Eradicate Pseudomonas aeruginosa Biofilms” (Advanced Science, 2021).
